Measured values: patent US12022832B2, “Compounds and methods for treating nematode infections” (The Governing Council of The University of Toronto, priority 2018, dated 2024)
Where two headings read alike, the source gives them in different places.

Experiments:
M. incognita (J2) = test: M. incognita J2 viability in vitro; assay type: in vivo, Meloidogyne incognita; conditions: assay done using 45 uM; for M. incognita (J2 viability in vitro): concentration giving >20% and <80% death: 48 or 72 hours, other compounds
C. elegans (L1) = test: C. elegans L1 viability, three day protocol; assay type: in vivo, Caenorhabditis elegans; conditions: for EC (80% dead): Caenorhabditis elegans, read-out: C. elegans (L1 viability): lowest concentration tested in which at least 80% of animals were dead; for C. elegans (L1 viability): lowest concentration tested in which greater than 20% of animals were dead: compounds 55-11, 55-12-21, 55-12-23
C. elegans = C. elegans acute motor (rubber-band, convulsion/paralysis) phenotype on solid substrate; assay type: in vivo, Caenorhabditis elegans; conditions: for C. elegans acute motor phene: concentration at which 10-50% of the animals exhibit convulsion/paralysis phenotypes / C. elegans acute motor phene: lowest concentration at which 50% of the young adult animals exhibit convulsion/paralysis phenotypes: solid substrate; for C. elegans acute motor phene: concentration at which 10-50% of the animals exhibit convulsion/paralysis phenotypes: 80 minutes, compounds 55-12-6, 55-12-9, 55-12-12, 55-12-21, 55-12-23; for C. elegans acute motor phene: lowest concentration at which 50% of the young adult animals exhibit convulsion/paralysis phenotypes: 80 minutes of incubation
Description: Worms are scored for the indicated phenotype (see legend); convulsions along the circumferential axis is characterized as the ‘shaker’ phenotype in C. elegans; convulsions along the anterior-posterior axis is characterized as the ‘rubber-band’ phenotype in C. elegans. 18 young-adult animals were scored at each time-point for rubber-band (animals spontaneously contract or do so upon touch on the nose with a platinum wire), hyperactive movement (observing rapid lateral nose movement) and shaker (spontaneous circumferential rotations). […] Data are showing the mean number of animals with each phenotype.
If a penetrant phenotype is observed, a dose-response analysis is performed; the EC50 is shown.
Each compound was added to the MYOB substrate before pouring to achieve desired concentration after diffusion through the media. The final concentration of dimethyl sulfoxide (DMSO) in each of the wells was […]. Young adult or fourth-staged larval worms are transferred into each well using a platinum wire pick.
˜25 young adult animals of each indicated strain were picked using a platinum wire onto 2% MYOB agar containing the indicated drug condition with 1% DMSO. […] 18 animals were scored per trial; data are the mean response of 2-3 replicates showing the standard error of the mean.

M. incognita (eggs) = test: M. incognita egg-hatch assay; assay type: in vivo, Meloidogyne incognita; conditions: 45 uM of each compound, ~50 eggs per well; effect threshold not stated
C. elegans (adult) = test: C. elegans adult viability; assay type: in vivo, Caenorhabditis elegans; conditions: 72 hours, relative to no-drug controls
P. pacificus (L1) = test: P. pacificus L1 viability; assay type: in vivo, Pristionchus pacificus; conditions: 72 hours; for P. pacificus (L1 viability): lowest concentration tested in which at least 80% of animals were dead: relative to no-drug controls
P. hermaphrodita (L1) = test: P. hermaphrodita L1 viability; assay type: in vivo, Phasmarhabditis hermaphrodita; conditions: 72 hours; for P. hermaphrodita (L1 viability): lowest concentration tested in which at least 80% of animals were dead: relative to no-drug controls; for P. hermaphrodita (L1 viability): lowest concentration tested in which greater than 20% of animals were dead: compounds 55-6, 55-12-20, 55-12-22
C. elegans (dauer) = test: C. elegans dauer viability; assay type: in vivo, Caenorhabditis elegans; conditions: relative to no-drug controls; for C. elegans (dauer viability): lowest concentration tested in which at least 80% of animals were dead: 72 hours
M. incognita = M. incognita Quick Soil Test (tomato); assay type: in vivo, Meloidogyne incognita; conditions: 45 uM, ~2000 J2 per tomato plant, worms in soil 4 days; for M. incognita (Quick Soil Test): concentration giving >80% killing: J2s counted in root tissue; for M. incognita (Quick Soil Test): concentration giving 10-20% killing: other compounds
[1] = 72 hours, relative to no-drug controls

Row | Structure (SMILES) | EC (80% dead) (C. elegans (L1); [1]) [µM] | M. incognita (J2 viability in vitro): concentration giving >20% and <80% death (M. incognita (J2)) | M. incognita (Egg Hatch Rate) (M. incognita (eggs)) | C. elegans (adult viability): lowest concentration tested in which at least 80% of animals were dead (C. elegans (adult)) | C. elegans (dauer viability): lowest concentration tested in which at least 80% of animals were dead (C. elegans (dauer)) | other results
1 | CCCc1ccc(-c2ccc(OC(F)F)cc2)cn1 [IIIaa (wact-55-12-7), 5-(4-(difluoromethoxy)phenyl)-2-propylpyridine] | 30 | – | – | – | – | M. incognita (J2 viability in vitro): concentration giving >80% death (M. incognita (J2); 48 or 72 hours of incubation): 45 µM
2 | CCCc1ccc(-c2ccc(OC(F)F)cn2)cc1 [IIIbb (wact-55-12-8), 5-(difluoromethoxy)-2-(4-propylphenyl)pyridine] | – | np | – | – | – | EC (80% dead) (C. elegans (L1); 72 h): 60 µM
3 | CCCc1ccc(-c2ccc(OC(F)F)nc2)cc1 [IIIcc (wact-55-12-9), 2-(difluoromethoxy)-5-(4-propylphenyl)pyridine] | – | np | np | – | – | C. elegans acute motor phene: concentration at which 10-50% of the animals exhibit convulsion/paralysis phenotypes (C. elegans): 60 μM; EC (80% dead) (C. elegans (L1); 72 h): 60 µM
4 | CCc1ccc(-c2ccc(OC(F)F)cc2)nc1 [IIIdd (wact-55-12-10), 2-(4-(difluoromethoxy)phenyl)-5-ethylpyridine] | 30 | – | – | np | 30 µM | P. pacificus (L1 viability): lowest concentration tested in which at least 80% of animals were dead (P. pacificus (L1)): 15 µM; P. hermaphrodita (L1 viability): lowest concentration tested in which at least 80% of animals were dead (P. hermaphrodita (L1)): 15 µM
5 | Cc1ccc(-c2ccc(OC(F)F)cc2)nc1 [IIIee (wact-55-12-11), 2-(4-(difluoromethoxy)phenyl)-5-methylpyridine] | 60 | np | – | – | – | –
6 | FC(F)Oc1ccc(-c2ccccn2)cc1 [IIIff (wact-55-12-12), 2-(4-(difluoromethoxy)phenyl)pyridine] | – | 45 µM | – | np | np | P. pacificus (L1 viability): lowest concentration tested in which at least 80% of animals were dead (P. pacificus (L1)): 60 µM; M. incognita (Quick Soil Test): concentration giving >80% killing (M. incognita): 45 µM; P. hermaphrodita (L1 viability): lowest concentration tested in which at least 80% of animals were dead (P. hermaphrodita (L1)): 60 µM; C. elegans acute motor phene: concentration at which 10-50% of the animals exhibit convulsion/paralysis phenotypes (C. elegans): 60 μM; C. elegans (L1 viability): lowest concentration tested in which at least 80% of animals were dead (C. elegans (L1); [1]): np
7 | CC#Cc1ccc(-c2ccc(OC(F)F)cc2)nc1 [IIIhh (wact-55-12-14), 2-(4-(difluoromethoxy)phenyl)-5-(prop-1-yn-1-yl)pyridine] | 7.5 | np | – | – | – | –
8 | NCc1ccc(-c2ccc(OC(F)F)cc2)nc1 [IIIkk (wact-55-12-17), (6-(4-(difluoromethoxy)phenyl)pyridin-3-yl)methanamine] | – | np | np | – | – | C. elegans acute motor phene: lowest concentration at which 50% of the young adult animals exhibit convulsion/paralysis phenotypes (C. elegans): np; C. elegans (L1 viability): lowest concentration tested in which at least 80% of animals were dead (C. elegans (L1); [1]): np; M. incognita (Hatching Mobility) (M. incognita (eggs)): np
9 | CCCc1cccc(-c2ccc(OC(F)F)cc2)n1 [IIInn (wact-55-12-20), 2-(4-(difluoromethoxy)phenyl)-6-propylpyridine] | – | – | – | np | np | P. pacificus (L1 viability): lowest concentration tested in which greater than 20% of animals were dead (P. pacificus (L1); compound 55-12-20): 30 µM; P. hermaphrodita (L1 viability): lowest concentration tested in which greater than 20% of animals were dead (P. hermaphrodita (L1)): 60 µM; C. elegans acute motor phene: lowest concentration at which 50% of the young adult animals exhibit convulsion/paralysis phenotypes (C. elegans): np; C. elegans (L1 viability): lowest concentration tested in which at least 80% of animals were dead (C. elegans (L1); [1]): np
10 | CCCc1ccnc(-c2ccc(OC(F)F)cc2)c1 [IIIoo (wact-55-12-21), 2-(4-(difluoromethoxy)phenyl)-4-propylpyridine] | – | np | np | np | np | P. pacificus (L1 viability): lowest concentration tested in which at least 80% of animals were dead (P. pacificus (L1)): 30 µM; M. incognita (Quick Soil Test): concentration giving >80% killing (M. incognita): 45 µM; P. hermaphrodita (L1 viability): lowest concentration tested in which at least 80% of animals were dead (P. hermaphrodita (L1)): 30 µM; C. elegans acute motor phene: concentration at which 10-50% of the animals exhibit convulsion/paralysis phenotypes (C. elegans): 60 μM; C. elegans (L1 viability): lowest concentration tested in which greater than 20% of animals were dead (C. elegans (L1); [1]): 60 µM
11 | CCCc1cccnc1-c1ccc(OC(F)F)cc1 [IIIpp (wact-55-12-22), 2-(4-(difluoromethoxy)phenyl)-3-propylpyridine] | – | – | – | np | np | P. pacificus (L1 viability): lowest concentration tested in which at least 80% of animals were dead (P. pacificus (L1)): np; P. hermaphrodita (L1 viability): lowest concentration tested in which greater than 20% of animals were dead (P. hermaphrodita (L1)): 60 µM; C. elegans acute motor phene: lowest concentration at which 50% of the young adult animals exhibit convulsion/paralysis phenotypes (C. elegans): np; C. elegans (L1 viability): lowest concentration tested in which at least 80% of animals were dead (C. elegans (L1); [1]): np
12 | CCCc1ccc(-c2cccc(OC(F)F)c2)nc1 [IIIqq (wact-55-12-23), 2-(3-(difluoromethoxy)phenyl)-5-propylpyridine] | – | np | np | np | np | P. pacificus (L1 viability): lowest concentration tested in which at least 80% of animals were dead (P. pacificus (L1)): 30 µM; M. incognita (Quick Soil Test): concentration giving 10-20% killing (M. incognita): 45 uM; P. hermaphrodita (L1 viability): lowest concentration tested in which at least 80% of animals were dead (P. hermaphrodita (L1)): 15 µM; C. elegans acute motor phene: concentration at which 10-50% of the animals exhibit convulsion/paralysis phenotypes (C. elegans): 60 μM; C. elegans (L1 viability): lowest concentration tested in which greater than 20% of animals were dead (C. elegans (L1); [1]): 60 µM; M. incognita (Hatching Mobility) (M. incognita (eggs)): np
13 | CCCc1cnc(-c2ccc(OC(F)F)cc2)nc1 [IIIss (wact-55-12-25), 2-(4-(difluoromethoxy)phenyl)-5-propylpyrimidine] | – | np | – | – | – | –
14 | CC(C)Cc1ccc(-c2ccc(OC(F)F)cc2)nc1 [IIItt (wact-55-12-26), 2-(4-(difluoromethoxy)phenyl)-5-isobutylpyridine] | 30 | np | – | – | – | M. incognita (Quick Soil Test): concentration giving 10-20% killing (M. incognita): 45 uM; M. incognita (Hatching Mobility) (M. incognita (eggs)): np
15 | CCCCc1ccc(-c2ccc(OC(F)F)cc2)nc1 [IIIuu (wact-55-12-27), 5-butyl-2-(4-(difluoromethoxy)phenyl)pyridine] | 15 | np | np | – | – | –
16 | CCCCc1ccc(-c2ccc(OC)cc2)nc1 [IIIw (wact-55-12-28), 5-butyl-2-(4-methoxyphenyl)pyridine] | 15 | 45 µM | – | – | – | M. incognita (Quick Soil Test): concentration giving >80% killing (M. incognita): 45 µM
17 | CCCc1ccc(-c2ccc(SC(F)F)cc2)nc1 [IIIy (wact-55-12-5), 2-(4-((difluoromethyl)thio)phenyl)-5-propylpyridine] | 30 | np | – | – | – | –
18 | CCCc1ccc(-c2ccc(OC(F)F)cc2)cc1 [IIIz (wact-55-12-6), 4-(difluoromethoxy)-4′-propyl-1,1′-biphenyl] | 30 | np | np | np | – | M. incognita (Quick Soil Test): concentration giving 10-20% killing (M. incognita): 45 uM; P. hermaphrodita (L1 viability): lowest concentration tested in which at least 80% of animals were dead (P. hermaphrodita (L1)): 7.5 µM; C. elegans (dauer viability): concentration where 10-20% death is exhibited (C. elegans (dauer); compounds 55-2, 55-8, 55-9, 55-12-6): 60 μM; C. elegans acute motor phene: concentration at which 10-50% of the animals exhibit convulsion/paralysis phenotypes (C. elegans): 60 μM
19 | CCCCCCCCCCCCCC(=O)O[C@@H]1[C@@H](C)[C@@]2(O)[C@@H](C=C(CO)C[C@]3(O)C(=O)C(C)=C[C@@H]23)[C@@H]2C(C)(C)[C@]12OC(C)=O [PMA, phorbol myristate acetate, reference compound] | – | – | – | – | – | induction of rubber-band (RB) convulsions (C. elegans; in vivo): fail to induced a RB phenotype
